Measurements reported in patent US9580430B2, “9H-pyrimido[4,5-B]indoles and related analogs as BET bromodomain inhibitors” (THE REGENTS OF THE UNIVERSITY OF MICHIGAN, priority 2014, dated 2017).

Tests used:
[1] = tested on: MOLM-13; experiment: Cell growth inhibition, MOLM-13 leukemia cells (CellTiter-Glo); type: cell-based; details: Homo sapiens, MOLM-13, 96 h; 4 days; read-out: IC50 (nM) MOLM-13 Cell Line (CellTiter-Glo assay)
Method in brief: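 MOLM-13 leukemia cells treated with compounds; viability read by CellTiter-Glo luminescence after 10-20 min reagent incubation at room temperature. IC50 derived from luminescent signal.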

[2] = tested on: MDA-MB-436; experiment: Cell growth inhibition, MDA-MB-436 breast cancer cells (WST-8); type: cell-based; details: Homo sapiens, MDA-MB-436, 96 h; 4 days; read-out: IC50 (nM) MDA-MB-436 Cell Line (WST assay)
Method in brief: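 IC50 was computed from WST-8-based cell counting in MDA-MB-436 cells, with absorbance read at 450 nm.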

[3] = biological target: T1, recombinant BRD4 BD2 (Homo sapiens, UniProt O60885); experiment: Competitive fluorescence-polarization (FP) binding assay, BRD4 BD2; details: competitive FP assay; protein 6 nM, probe […]; read-out: IC50 (nM) BRD4 BD2; also: probe 1.5 nM
T1 construct: for recombinant BRD4 BD1 and BRD4 BD2 proteins
Method in brief: (§1)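 FP competition with FAM-labelled probe (ZBA248 or BRD-1F) against preincubated protein/probe complex; BD1 at 10 nM and BD2 at 6 nM final, in 100 mM potassium phosphate pH 6.5, 0.01% Triton X-100. 30 min, room temperature. IC50 by nonlinear regression; Ki also derived, using probe Kd from protein saturation.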

[4] = biological target: T2, recombinant BRD4 BD1 (Homo sapiens, UniProt O60885); experiment: Competitive fluorescence-polarization (FP) binding assay, BRD4 BD1; details: competitive FP assay; protein 10 nM, probe […]; read-out: IC50 (nM) BRD4 BD1; also: probe 1.5 nM
T2 construct: for recombinant BRD4 BD1 and BRD4 BD2 proteins
Method in brief: as §1

SMILES	IC50 [1] [nM]	IC50 [2] [nM]	IC50 [3] [nM]	IC50 [4] [nM]
COc1cc2c(cc1-c1c(C)noc1C)[nH]c1nc(C)nc(Nc3n[nH]c4ccccc34)c12 [Cpd. No. 58, 7-(3,5-Dimethylisoxazol-4-yl)-N-(1H-indazol-3-yl)-6-methoxy-2-methyl-9H-pyrimido[4,5-b]indol-4-amine]	32	54.6	22.6	11
COc1cc2c(cc1-c1c(C)noc1C)[nH]c1nc(C)nc(Nc3nn(C)cc3C)c12 [Cpd. No. 77, N-(1,4-dimethyl-1H-pyrazol-3-yl)-7-(3,5-dimethylisoxazol-4-yl)-6-methoxy-2-methyl-9H-pyrimido[4,5-b]indol-4-amine]	242	351	168	64.4
COc1cc2c(cc1-c1c(C)noc1C)[nH]c1nc(C)nc(Nc3cccc(Cl)c3F)c12 [Cpd. No. 217, N-(3-chloro-2-fluorophenyl)-7-(3,5-dimethylisoxazol-4-yl)-6-methoxy-2-methyl-9H-pyrimido[4,5-b]indol-4-amine]	498	1930	68	165
COc1cc2c(cc1-c1c(C)noc1C)[nH]c1nc(C)nc(NC3CCCCC3)c12 [Cpd. No. 112, N-cyclohexyl-7-(3,5-dimethylisoxazol-4-yl)-6-methoxy-2-methyl-9H-pyrimido[4,5-b]indol-4-amine]	15000	2430	395	460
COc1cc2c(cc1-c1c(C)noc1C)[nH]c1nc(C)nc(Nc3csc4ncccc34)c12 [Cpd. No. 103, N-(7-(3,5-dimethylisoxazol-4-yl)-6-methoxy-2-methyl-9H-pyrimido[4,5-b]indol-4-yl)thieno[2,3-b]pyridin-3-amine]	39	120	38	29
COc1cc2c(cc1-c1c(C)noc1C)[nH]c1nc(C)nc(Nc3c(C4CC4)c(C)nn3C)c12 [Cpd. No. 140, N-(4-Cyclopropyl-1,3-dimethyl-1H-pyrazol-5-yl)-7-(3,5-dimethylisoxazol-4-yl)-6-methoxy-2-methyl-9H-pyrimido[4,5-b]indol-4-amine]	120	210	95	39.3
COc1cc2c(cc1-c1c(C)noc1C)[nH]c1nc(C)nc(Nc3nn(C)c4cccnc34)c12 [Cpd. No. 123, 7-(3,5-Dimethylisoxazol-4-yl)-6-methoxy-2-methyl-N-(1-methyl-1H-pyrazolo[4,3-b]pyridin-3-yl)-9H-pyrimido[4,5-b]indol-4-amine]	759	1420	483	257
COc1cc2c(cc1-c1c(C)noc1C)[nH]c1nc(C)nc(Nc3nn(C)c4ccc(Cl)cc34)c12 [Cpd. No. 13, N-(5-Chloro-1-methyl-1H-indazol-3-yl)-7-(3,5-dimethylisoxazol-4-yl)-6-methoxy-2-methyl-9H-pyrimido[4,5-b]indol-4-amine]	108	1080	> 1000	> 1000
COc1cc2c(cc1-c1c(C)noc1C)[nH]c1nc(C)nc(Nc3cn(C)nc3C(C)(C)O)c12 [compound 269, 2-(4-(7-(3,5-dimethylisoxazol-4-yl)-6-methoxy-2-methyl-9H-pyrimido[4,5-b]indol-4-ylamino)-1-methyl-1H-pyrazol-3-yl)propan-2-ol]	97.4	154	35.1	21.9
COc1cc2c(cc1-c1c(C)noc1C)[nH]c1nc(C)nc(Nc3cn(C)nc3C(F)(F)F)c12 [Cpd. No. 179, 7-(3,5-dimethylisoxazol-4-yl)-6-methoxy-2-methyl-N-(1-methyl-3-(trifluoromethyl)-1H-pyrazol-4-yl)-9H-pyrimido[4,5-b]indol-4-amine]	2080	330	116	166
COc1cc2c(cc1-c1c(C)noc1C)[nH]c1nc(C)nc(Nc3cccc4[nH]ccc34)c12 [Cpd. No. 220, 7-(3,5-dimethylisoxazol-4-yl)-N-(1H-indol-4-yl)-6-methoxy-2-methyl-9H-pyrimido[4,5-b]indol-4-amine]	37	72	9	17
COc1cc2c(cc1-c1c(C)noc1C)[nH]c1nc(C)nc(Nc3cnc4ccccn34)c12 [Cpd. No. 99, 7-(3,5-dimethylisoxazol-4-yl)-N-(imidazo[1,2-a]pyridin-3-yl)-6-methoxy-2-methyl-9H-pyrimido[4,5-b]indol-4-amine]	206	307	87	47
COc1cc2c(cc1-c1c(C)noc1C)[nH]c1nc(C)nc(Nc3c(C)nn(C)c3C)c12 [Cpd. No. 35, 7-(3,5-dimethylisoxazol-4-yl)-6-methoxy-2-methyl-N-(1,3,5-trimethyl-1H-pyrazol-4-yl)-9H-pyrimido[4,5-b]indol-4-amine]	38.9	88.9	42.9	20.4
COc1cc2c(cc1-c1c(C)noc1C)[nH]c1nc(C)nc(Nc3nn(C)cc3C(C)C)c12 [compound 78, 7-(3,5-dimethylisoxazol-4-yl)-N-(4-isopropyl-1-methyl-1H-pyrazol-3-yl)-6-methoxy-2-methyl-9H-pyrimido[4,5-b] indol-4-amine]	97.4	271	63.5	16
COc1cc2c(cc1-c1c(C)noc1C)[nH]c1nc(C)nc(Nc3c(C(C)C)cnn3C)c12 [Cpd. No. 79, 7-(3,5-dimethylisoxazol-4-yl)-N-(4-isopropyl-1-methyl-1H-pyrazol-5-yl)-6-methoxy-2-methyl-9H-pyrimido[4,5-b]indol-4-amine]	43.9	121	1.8	9.3

These reach a lower IC50 [1]. Values come first.

IC50 [1] [nM]	IC50 [2] [nM]	IC50 [3] [nM]	IC50 [4] [nM]	SMILES
21.9	52.7	34.6	13.3	COc1cc2c(cc1-c1c(C)noc1C)[nH]c1nc(C)nc(Nc3cc(C(F)(F)F)nn3C)c12 [Cpd. No. 21, 7-(3,5-Dimethylisoxazol-4-yl)-6-methoxy-2-methyl-N-(1-methyl-3-(trifluoromethyl)-1H-pyrazol-5-yl)-9H-pyrimido[4,5-b]indol-4-amine]
11.7	11.2	3.2	1.6	COc1cc2c(cc1-c1c(C)noc1C)[nH]c1nc(C)nc(Nc3cc(C4CC4)nn3C)c12 [Cpd. No. 121, N-(3-Cyclopropyl-1-methyl-1H-pyrazol-5-yl)-7-(3,5-dimethylisoxazol-4-yl)-6-methoxy-2-methyl-9H-pyrimido[4,5-b]indol-4-amine]
10.3	55.1	8	9.7	COc1cc2c(cc1-c1c(C)noc1C)[nH]c1nc(C)nc(Nc3cc(C)nn3C)c12 [Cpd. No. 8, N-(1,3-Dimethyl-1H-pyrazol-5-yl)-7-(3,5-dimethylisoxazol-4-yl)-6-methoxy-2-methyl-9H-pyrimido[4,5-b]indol-4-amine]
15.4	26.3	9.6	14	CCn1nc(C)cc1Nc1nc(C)nc2[nH]c3cc(-c4c(C)noc4C)c(OC)cc3c12 [Cpd. No. 116, 7-(3,5-Dimethylisoxazol-4-yl)-N-(1-ethyl-3-methyl-1H-pyrazol-5-yl)-6-methoxy-2-methyl-9H-pyrimido[4,5-b]indol-4-amine]
14.6	529	194	248	COc1cc2c(cc1-c1c(C)noc1C)[nH]c1nc(C)nc(Nc3cnn4cccnc34)c12 [Cpd. No. 16, 7-(3,5-Dimethylisoxazol-4-yl)-6-methoxy-2-methyl-N-(pyrazolo[1,5-a]pyrimidin-3-yl)-9H-pyrimido[4,5-b]indol-4-amine]
27.1	132	55.1	33.9	CCn1nc(C)c(C)c1Nc1nc(C)nc2[nH]c3cc(-c4c(C)noc4C)c(OC)cc3c12 [Cpd. No. 186, 7-(3,5-dimethylisoxazol-4-yl)-N-(1-ethyl-3,4-dimethyl-1H-pyrazol-5-yl)-6-methoxy-2-methyl-9H-pyrimido[4,5-b]indol-4-amine]
31	62	22	14	COc1cc2c(cc1-c1c(C)noc1C)[nH]c1nc(C)nc(Nc3cn(C)c4ncccc34)c12 [Cpd. No. 227, 7-(3,5-dimethylisoxazol-4-yl)-6-methoxy-2-methyl-N-(1-methyl-1H-pyrrolo[2,3-b]pyridin-3-yl)-9H-pyrimido[4,5-b]indol-4-amine]
11.7	26	4.1	6.1	COc1cc2c(cc1-c1c(C)noc1C)[nH]c1nc(C)nc(Nc3cc(C(C)C)nn3C)c12 [Cpd. No. 65, 7-(3,5-Dimethylisoxazol-4-yl)-N-(3-isopropyl-1-methyl-1H-pyrazol-5-yl)-6-methoxy-2-methyl-9H-pyrimido[4,5-b]indol-4-amine]
20	46	20	13	CCc1nn(C)c(CC)c1Nc1nc(C)nc2[nH]c3cc(-c4c(C)noc4C)c(OC)cc3c12 [Cpd. No. 240, N-(3,5-diethyl-1-methyl-1H-pyrazol-4-yl)-7-(3,5-dimethylisoxazol-4-yl)-6-methoxy-2-methyl-9H-pyrimido[4,5-b]indol-4-amine]
